Measurements from US11969448B2, “Method for improving an effect of chemotherapeutic drug of gemcitabine on inhibiting pancreatic cancer and improving side effect of chemotherapeutic drug of Gemcitabine” (GENMONT BIOTECH INC., priority 2020, dated 2024).

Tests used:
[1] = tested on: advanced pancreatic cancer; conditions: first-line chemotherapy for advanced pancreatic cancer; background statement; cited from earlier work
[2] = Side effects of Gemcitabine: body and muscle weight, serum biochemical and blood cell analysis in KC mice; assay type: in vivo
Source text: In the experiment, a 12-week-old LSL-Kras^G12D/−-Pdx-1-Cre (KC) gene transgenic mouse was used to simulate a mouse model of pancreatic cancer. The national laboratory animal center of National Applied Research Laboratories was entrusted to introduce the experimental animals from the Frederick National Laboratory for cancer research, and then conduct breeding, reproducing and embryo freezing, and then the experimental animals are bred in the animal center attached to Chung Shan Medical University in Taichung. The environment for feeding animals is controlled at a room temperature (20 to 23° C.) and in a humidity of 50 to 60%, and the light cycles of day and night are maintained for 12 hours respectively. Experimental animals are allowed to eat and drink freely. All animal experiment procedures were carried out in accordance with the protocol approved by institutional animal care and use committee (IACUC) of Chung Shan Medical University.
In order to induce acute pancreatitis in mice, Caerulein (25 μg/kg/h) were injected into the abdominal cavity of the mice by intraperitoneal (IP) injection every 7 hours 3 days before and 1 day before the experiment. The experimental mice were was divided into 4 groups. The chemotherapeutic drug of Gemcitabine was given with different concentrations (20, 50, 100, 200 mg/kg of body weight), and was administered by intraperitoneal injection for 4 consecutive weeks, once every 3 days, 10 times in total.
Two strains of the Lactobacillus paracasei GMNL-133 and the Lactobacillus reuteri GMNL-89 were used in the experiment, respectively with the ratio of 1:0.1 (1.64×10^7 CFU/0.02 kg of body weight: 1.64×10^6 CFU/0.02 kg of body weight) and the ratio of 1:1 (1.64×10^7 CFU/0.02 kg of body weight: 1.64×10^7 CFU/0.02 kg of body weight). The dosage used is based on that 12.3 times the recommended daily intake per kilogram of body weight for humans is 1 time the dose for mice. The probiotic composition was fed into the stomach of the mice by tube feeding, 5 days a week, once a day, 0.2 mL each time.
In order to study the adverse effects of the Caerulein, the chemotherapeutic drug of the Gemcitabine, and probiotic composition on serum biochemistry and blood cells, blood was collected after cardiac puncture in anesthetized mice, and the blood was immediately sent to Axel Biotechnology Inc. (Taichung) to perform blood tests and serum biochemical analysis.

[3] = tested on: BXPC-3 pancreatic cancer cells; experiment: MTT test, Experiment 2: BXPC-3 cells treated with probiotic lysates combined with Gemcitabine; assay type: cell-based; conditions: Gemcitabine 10 ng/mL alone; cultured 0 to 6 days; FIG. 7A
Procedure: 2500 BXPC-3 pancreatic cancer cells were seeded into each well of a 96-well plate, and the 96-well plate was incubated at 37° C. overnight. After the old cell culture medium was aspirated, the fresh culture medium containing the lysate of the Lactobacillus reuteri GMNL-89, the lysate of the Lactobacillus paracasei GMNL-133 (25 ug/mL of concentration), or the lysate of the Lactobacillus reuteri GMNL-89 and the Lactobacillus paracasei GMNL-133 (i.e., the probiotic composition of the present disclosure) were respectively mixed with the fresh culture medium containing the chemotherapeutic drug of Gemcitabine (10 ng/mL of concentration) to be added to the BXPC-3 pancreatic cancer cells. Then, the BXPC-3 pancreatic cancer cells were cultured for 0 to 6 days. At different time points, based on day 0, the cell viability rate was determined by the MTT test, and the cell viability rate at different time points was calculated.

[4] = tested on: Caerulein-treated LSL-KrasG12D/−-Pdx-1-Cre (KC) gene transgenic mice (pancreatic intraepithelial neoplasia lesions); experiment: Histological staining (H&E, vimentin and Ki67 immunohistochemistry) of the pancreas in the mouse model of pancreatic cancer; assay type: in vivo; conditions: FIG. 3
Source text: After the mice were sacrificed, the pancreas tissue was collected, fixed with formalin solution (TONYAR biotech. Inc., Taiwan), embedded in paraffin, tissue sectioned, and then subjected to H&E staining and immunohistochemical staining. […]

[5] = Caerulein-treated KC mice, Gemcitabine 200 mg/kg alone
[6] = Gemcitabine 20, 50, 100, 200 mg/kg IP alone, compared with untreated mice

## Nc1ccn([C@@H]2O[C@H](CO)[C@@H](O)C2(F)F)c(=O)n1 [Gemcitabine]
[1]
  5-year survival rate of patients: 30%
[2]; [5]
  ALT: 60 U/L
  AST: 351 U/L
  Body weight: 21.10 ± 1.44 g
  Gastrocnemius muscle weight: 0.13 ± 0.00 g
  Platelets: 1222.00 K/μL
  Red blood cell: 8.70 M/μL
  White blood cell: 3.04 K/μL
[2]; KC mice treated with Caerulein (25 μg/kg), Gemcitabine alone
  body weight and muscle (gastrocnemius) weight: lose weight and muscle (gastrocnemius) weight significantly
[2]; KC mice treated with Caerulein (25 μg/kg), only Gemcitabine
  liver function index of AST and ALT: prone to elevate
[3]
  cell viability rate (time of lowest value): reached the lowest on the sixth day
  death of BXPC-3 pancreatic cancer cells (onset): caused the death of the BXPC-3 pancreatic cancer cells from the second day
[4]; Gemcitabine 100 mg/kg and 200 mg/kg
  tissue staining results at the two high doses: excellent results
[4]; [6]
  expressions of the vimentin and the cell proliferation marker of Ki67: also lower
  pancreatic intraepithelial neoplasia lesion grades (H&E staining): lower than those of the untreated mice
